# Earlier results, collected in patent US8911781B2, “Process of manufacture of novel drug delivery system: multilayer tablet composition of thiazolidinedione and biguanides” (Inventia Healthcare Private Limited, priority 2002, dated 2014).
# Structures can show the parent of a compound that is named as a salt.
# Legend:
# [1] = after ingestion
# [2] = at steady state concentrations; parent drug
Structure (SMILES),time to complete gastro-intestinal absorption [1],plasma elimination half-life (t½) [2]
CN(C)C(=N)N=C(N)N [Metformin HCl],≤ 6 h,
CCc1ccc(CCOc2ccc(CC3SC(=O)NC3=O)cc2)nc1 (centres unmarked) [Pioglitazone HCl],,3.3 to 4.9 h
